pIC50: −log10 of the molar value. Values after ≈ are worked out from the molar mass of the structure shown.
Assays:
[1] = target: Mitogen-activated protein kinase 8 (Homo sapiens, UniProt P45983); test: Inhibition of full length Hexa-His-tagged JNK1 using GST-tagged cJun and [gamma33P]ATP as substrate after 60 mins by scintillation counting
[2] = target: Mitogen-activated protein kinase 9 (Homo sapiens, UniProt P45984); test: Inhibition of full length Hexa-His-tagged JNK2 using GST-tagged cJun and [gamma33P]ATP as substrate after 60 mins by scintillation counting
[3] = target: Mitogen-activated protein kinase 10 (Homo sapiens, UniProt P53779); test: Inhibition of full length Hexa-His-tagged JNK3 using GST-tagged cJun and [gamma33P]ATP as substrate after 60 mins by scintillation counting
[4] = Metabolic stability in human liver S9 fraction assessed as compound remaining after 60 mins; format: ADME, subcellular; conditions: read-out: Stability
[5] = target: Mitogen-activated protein kinase 14 (Homo sapiens, UniProt Q16539); test: Inhibition of p38alpha using MBP and [gamma33P]ATP as substrate after 60 mins by scintillation counting
[6] = Metabolic stability in rat liver S9 fraction assessed as compound remaining after 60 mins; format: ADME, subcellular; conditions: read-out: Stability
[7] = Half life in human microsomes; format: ADME, Microsome
[8] = Half life in rat microsomes; format: ADME, Microsome
[9] = Aqueous solubility of the compound at pH 7.4; format: physicochemical
[10] = Thermodynamic solubility of the compound at pH 5; format: physicochemical; conditions: buffer, read-out: Therm_solubility
[11] = target: c-Jun N-terminal kinase, JNK (Homo sapiens, UniProt P45983+P53779+P45984); test: Inhibition of JNK-mediated cJun phosphorylation in anisomysin-stimulated human Jurkat T cells pretreated for 30 mins before anisomysin stimulation measured after 10 mins by DELFIA assay; format: cell-based
[12] = Volume of distribution at steady state in rat at 2 to 10 mg/kg, iv; format: ADME, organism-based; set-up: dose 2-10 mg/kg, route intravenous; conditions: in vivo, read-out: Vdss
[13] = Clearance in rat at 2 to 10 mg/kg, iv; format: ADME, organism-based; set-up: dose 2-10 mg/kg, route intravenous; conditions: in vivo
[14] = Aqueous solubility of the compound at pH 5; format: physicochemical

Chain of Mitogen-activated protein kinase 8 (P45983 whole entry): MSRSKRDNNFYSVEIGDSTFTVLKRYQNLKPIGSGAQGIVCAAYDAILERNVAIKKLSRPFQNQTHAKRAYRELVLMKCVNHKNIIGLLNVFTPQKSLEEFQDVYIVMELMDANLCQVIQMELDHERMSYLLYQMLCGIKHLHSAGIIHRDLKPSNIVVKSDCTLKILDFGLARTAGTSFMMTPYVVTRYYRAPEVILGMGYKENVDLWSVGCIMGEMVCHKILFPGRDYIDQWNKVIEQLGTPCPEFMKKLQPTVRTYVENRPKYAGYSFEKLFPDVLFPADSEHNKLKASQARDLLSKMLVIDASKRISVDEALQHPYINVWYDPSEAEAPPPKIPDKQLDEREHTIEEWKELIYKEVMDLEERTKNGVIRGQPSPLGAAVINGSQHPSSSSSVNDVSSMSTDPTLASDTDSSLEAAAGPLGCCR
Chain of Mitogen-activated protein kinase 14 (Q16539 whole entry): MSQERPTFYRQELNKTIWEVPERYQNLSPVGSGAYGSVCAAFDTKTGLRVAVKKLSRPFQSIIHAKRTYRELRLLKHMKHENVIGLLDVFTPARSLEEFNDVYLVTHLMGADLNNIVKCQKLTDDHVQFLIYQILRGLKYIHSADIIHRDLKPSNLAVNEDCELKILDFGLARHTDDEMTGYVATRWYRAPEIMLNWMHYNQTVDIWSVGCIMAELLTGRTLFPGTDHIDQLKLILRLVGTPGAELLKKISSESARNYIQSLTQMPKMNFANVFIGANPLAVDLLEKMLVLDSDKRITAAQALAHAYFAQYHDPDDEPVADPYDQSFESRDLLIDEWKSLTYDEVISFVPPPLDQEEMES
Chain of Mitogen-activated protein kinase 10 (P53779 whole entry): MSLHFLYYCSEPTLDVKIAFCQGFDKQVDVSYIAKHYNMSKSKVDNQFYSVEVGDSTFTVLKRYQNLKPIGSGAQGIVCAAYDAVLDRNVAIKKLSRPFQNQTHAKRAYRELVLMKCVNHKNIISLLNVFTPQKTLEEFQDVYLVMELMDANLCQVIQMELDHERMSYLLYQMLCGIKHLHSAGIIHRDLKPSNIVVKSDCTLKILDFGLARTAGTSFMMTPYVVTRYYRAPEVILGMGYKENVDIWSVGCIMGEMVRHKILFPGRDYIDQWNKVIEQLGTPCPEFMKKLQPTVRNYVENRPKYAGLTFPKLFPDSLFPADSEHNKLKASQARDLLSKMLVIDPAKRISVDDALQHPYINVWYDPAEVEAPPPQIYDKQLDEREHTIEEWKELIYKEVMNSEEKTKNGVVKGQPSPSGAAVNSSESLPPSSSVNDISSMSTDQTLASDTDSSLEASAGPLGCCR
Chain of Mitogen-activated protein kinase 9 (P45984 whole entry): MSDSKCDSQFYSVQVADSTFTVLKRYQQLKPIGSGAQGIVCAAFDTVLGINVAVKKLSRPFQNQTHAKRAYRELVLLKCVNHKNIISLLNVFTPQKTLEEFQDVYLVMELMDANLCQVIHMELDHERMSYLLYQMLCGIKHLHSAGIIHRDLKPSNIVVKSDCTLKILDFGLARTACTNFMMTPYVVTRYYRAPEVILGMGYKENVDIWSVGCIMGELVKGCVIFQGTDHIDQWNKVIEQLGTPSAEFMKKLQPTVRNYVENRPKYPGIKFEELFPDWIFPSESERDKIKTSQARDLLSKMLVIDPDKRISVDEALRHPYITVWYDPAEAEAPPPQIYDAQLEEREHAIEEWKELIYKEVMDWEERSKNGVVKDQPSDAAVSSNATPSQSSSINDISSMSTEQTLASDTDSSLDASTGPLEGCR

| pIC50 [1] | pIC50 [2] | pIC50 [3] | remaining at 1 h [4] | pIC50 [5] | remaining at 1 h [6] | half-life [7] | half-life [8] | solubility [9] | solubility thermodynamic [10] | IC50 [11] | Vd [12] | clearance [13] | Structure (SMILES) | solubility [14] |
| --- | --- | --- | --- | --- | --- | --- | --- | --- | --- | --- | --- | --- | --- | --- |
| < 5.00 | 6.10 | < 6.00 | > 70% | < 4.52 | > 70% |  |  |  |  |  |  |  | COc1ccc(Nc2ncc3nc(Nc4ccccc4)n(C4CCCC4)c3n2)cc1 |  |
| 5.96 | 6.92 |  | 86% | < 5.52 | 35% | 1.03 h | 1.68 h | 447 µg/mL (≈ 1070 µM) |  |  |  |  | COc1ccc(Nc2ncc3nc(Nc4ccccc4F)n(C4CCCC4)c3n2)cc1 |  |
| < 5.00 | < 5.00 | < 5.00 | > 70% | < 4.52 | > 70% |  |  |  |  |  |  |  | COc1ccc(Nc2ncc3nc(Nc4ccccc4Cl)n(C4CCCC4)c3n2)cc1 |  |
| 5.60 | 6.89 | 6.85 | > 70% | 5.89 | > 70% |  |  |  |  |  |  |  | COc1ccc(Nc2ncc3nc(Nc4ccc(F)cc4F)n(C4CCCC4)c3n2)cc1 |  |
| 5.96 | 7.34 | 6.89 | > 70% | 5.46 | > 70% |  |  |  |  |  |  |  | COc1ccc(Nc2ncc3nc(Nc4c(F)cccc4F)n(C4CCCC4)c3n2)cc1 |  |
| 5.20 | 6.44 | 6.17 |  | < 4.52 |  |  |  |  |  |  |  |  | CNc1ncc2nc(Nc3ccccc3F)n(C3CCCC3)c2n1 |  |
| 5.74 | 6.85 | 6.59 |  | 5.59 |  |  |  |  |  |  |  |  | CCNc1ncc2nc(Nc3ccccc3F)n(C3CCCC3)c2n1 |  |
| 6.10 | 7.18 | 6.96 |  | 5.92 |  |  |  |  |  |  |  |  | CC(C)Nc1ncc2nc(Nc3ccccc3F)n(C3CCCC3)c2n1 |  |
| 6.24 | 7.34 | 7.30 |  | 5.82 |  |  |  |  |  |  |  |  | Fc1ccccc1Nc1nc2cnc(NC3CCCCC3)nc2n1C1CCCC1 |  |
| 7.12 | 8.00 | 7.92 |  | 6.29 |  |  |  | < 2.5 µg/mL |  |  |  |  | O[C@H]1CC[C@H](Nc2ncc3nc(Nc4ccccc4F)n(C4CCCC4)c3n2)CC1 |  |
| 6.64 | 7.59 | 7.51 |  | 6.68 |  |  |  |  | 869 µg/mL (≈ 2120 µM) | 300 nM |  |  | N[C@H]1CC[C@H](Nc2ncc3nc(Nc4ccccc4F)n(C4CCCC4)c3n2)CC1 |  |
| 5.44 | 6.37 | 6.44 |  | 5.03 |  |  |  |  |  |  |  |  | CCn1c(Nc2ccccc2F)nc2cnc(Nc3ccc(OC)cc3)nc21 |  |
| 6.08 | 7.08 | 7.02 |  | 5.68 |  |  |  |  |  |  |  |  | COc1ccc(Nc2ncc3nc(Nc4ccccc4F)n(C(C)C)c3n2)cc1 |  |
| 5.54 | 6.85 | 6.44 |  | < 5.52 |  |  |  |  |  |  |  |  | COc1ccc(Nc2ncc3nc(Nc4ccccc4F)n(C4CCCCC4)c3n2)cc1 |  |
| < 5.00 | 6.00 | < 6.52 |  | < 5.52 |  |  |  |  |  |  |  |  | COc1ccc(Nc2ncc3nc(Nc4ccccc4F)n(-c4ccccc4)c3n2)cc1 |  |
| 5.59 | 6.62 | 6.62 |  | 6.68 |  |  |  |  |  |  |  |  | COc1ccc(Nc2ncc3nc(Nc4ccccc4F)n([C@H]4CC[C@H](N)CC4)c3n2)cc1 |  |
| 6.80 | 7.85 | 7.77 |  | 5.80 |  |  |  |  |  |  |  |  | COc1ccc(Nc2ncc3nc(Nc4ccccc4F)n([C@H]4CC[C@@H](O)CC4)c3n2)cc1 |  |
| 6.31 | 7.28 | 7.20 |  | 5.55 |  |  |  |  |  |  |  |  | COc1ccc(Nc2ncc3nc(Nc4ccccc4F)n(C4CCOCC4)c3n2)cc1 |  |
| 6.74 | 7.66 | 7.62 |  | 6.62 |  |  |  |  |  |  |  |  | COc1ccc(Nc2ncc3nc(Nc4ccccc4F)n([C@H]4CC[C@@H](C(N)=O)CC4)c3n2)cc1 |  |
| 7.04 | 8.05 | 7.89 |  | 6.31 |  |  |  |  | 852 µg/mL (≈ 1990 µM) | 210 nM | 66 L/kg | 118 mL/min/kg | N[C@H]1CC[C@H](Nc2ncc3nc(Nc4c(F)cccc4F)n(C4CCCC4)c3n2)CC1 |  |
| 6.82 | 7.96 | 7.80 |  | 6.31 |  |  |  |  | > 1000 µg/mL | 240 nM | 90 L/kg | 88 mL/min/kg | N[C@H]1CC[C@H](Nc2ncc3nc(Nc4c(F)cc(F)cc4F)n(C4CCCC4)c3n2)CC1 |  |
|  |  |  |  |  |  |  |  |  |  |  |  |  | Cl.N[C@H]1CC[C@H](Nc2ncc3nc(Nc4ccc(F)cc4F)n(C4CCCC4)c3n2)CC1 | 5.7 µg/mL |

Reference: ChEMBL document CHEMBL1944604, “Aminopurine based JNK inhibitors for the prevention of ischemia reperfusion injury” (Bioorg Med Chem Lett, 2012)
